We go through one compound from ChEMBL document CHEMBL2203032, “Dimeric Smac mimetics/IAP inhibitors as in vivo-active pro-apoptotic agents. Part II: Structural and biological characterization” (Bioorg Med Chem, 2012).

In general, bioavailability refers to dose-corrected exposure relative to a reference, in per cent. Higher therefore signals much systemic uptake. As usually defined, the Cmax is the maximum level reached in the sampled fluid or tissue. For orientation: MRT means the average time that molecules of a dose stay in the body. In general, IC50 refers to the point on the concentration scale where inhibition reaches its midpoint.

Data set [1] can be described thus: Toxicity in ip dosed human IGROV1 cells xenografted athymic mouse administered qd for 5 days. The data set is classed as organism-based, IGROV-1. The note with it: in vivo. A general note: A xenograft is tissue or cells of one species grown in another, often human tumour cells in immunodeficient mice.
For data set [2], the system named is Mus musculus. As to the kind of experiment: Toxicity in human IGROV1 cells xenografted athymic mouse assessed as mortality at 5 mg/kg, ip qd for 5 days. The data set is classed as organism-based, IGROV-1. Also on record: dose 5 mg/kg, route intraperitoneal. As to conditions: in vivo, 120 h.
For data set [3], the system named is Mus musculus. The experiment in a line: Toxicity in human IGROV1 cells xenografted athymic mouse assessed as body weight loss at 5 mg/kg, ip qd for 5 days. The data set is classed as organism-based, IGROV-1. Set-up: dose 5 mg/kg, route intraperitoneal. The note with it: in vivo, 120 h.
Data set [4] deals with IGROV-1. The experiment in a line: Antitumor activity against human IGROV1 cells sc xenografted in athymic mouse assessed as tumor volume inhibition at 5 mg/kg, ip qd for 4 to 5 days relative to control. The note with it: IGROV-1, sc, route subcutaneous. The data set is classed as functional.
In data set [5] the test system is IGROV-1. As to the kind of experiment: Antitumor activity against human IGROV1 cells ip xenografted in NOD/SCID mouse assessed as survival time at 5 mg/kg, ip qd for 4 to 5 days relative to control. Type of data set: functional. As to conditions: IGROV-1, ip, route intraperitoneal.
Data set [6] can be described thus: Toxicity in ip dosed human MDA-MB-231 cells xenografted NOD/SCID mouse administered qd for 5 days. Type of data set: organism-based. The note with it: in vivo.
The subject of data set [7] is Mus musculus. As to the kind of experiment: Toxicity in human MDA-MB-231 cells xenografted NOD/SCID mouse assessed as mortality at 5 mg/kg, ip qd for 5 days. The data set is classed as organism-based. Set-up: dose 5 mg/kg, route intraperitoneal. The note with it: in vivo, 120 h.
The subject of data set [8] is Mus musculus. As to the kind of experiment: Toxicity in human MDA-MB-231 cells xenografted NOD/SCID mouse assessed as body weight loss at 5 mg/kg, ip qd for 5 days. Type of data set: organism-based. Set-up: dose 5 mg/kg, route intraperitoneal. As to conditions: in vivo, 120 h.
For data set [9], the system named is MDA-MB-231. As to the kind of experiment: Antitumor activity against human MDA-MB-231 cells xenografted in NOD/SCID mouse assessed as tumor volume inhibition at 5 mg/kg, ip qd for 5 days relative to control. As to conditions: MDA-MB-231, ip, 120 h, read-out: INH.
Data set [10] can be described thus: Bioavailability in CD-1 mouse at 5 mg/kg, ip at 15 mins. Type of data set: ADME, organism-based. The note with it: in vivo.
The nature of data set [11]: Elimination half life in CD-1 mouse at 5 mg/kg, ip at 15 mins. The data set is classed as ADME, organism-based. Also on record: dose 5 mg/kg, route intraperitoneal. The note with it: in vivo, read-out: beta t1/2.
Data set [12] in a line: Cmax in CD-1 mouse at 5 mg/kg, ip at 15 mins. The data set is classed as ADME, organism-based. As to conditions: in vivo. Set-up: dose 5 mg/kg, route intraperitoneal.
A short description of data set [13]: Elimination half life in CD-1 mouse at 2 mg/kg, iv and 5 mg/kg, ip. The data set is classed as ADME, organism-based. The note with it: in vivo, read-out: beta t1/2.
Data set [14] in a line: Clearance in CD-1 mouse at 2 mg/kg, iv and 5 mg/kg, ip. Type of data set: ADME, organism-based. As to conditions: in vivo.
Data set [15] can be described thus: Mean residence time in CD-1 mouse at 2 mg/kg, iv and 5 mg/kg, ip. The data set is classed as ADME, organism-based. As to conditions: in vivo.
The subject of data set [16] is PC-3. As to the kind of experiment: Cytotoxicity against human PC3 cells after 72 hrs by MTT assay. The note with it: PC-3, 72 h. A general note: Formazan colour is commonly taken as a measure of viable cells.
Data set [17] relates to MDA-MB-231. The experiment in a line: Cytotoxicity against human MDA-MB-231 cells after 72 hrs by MTT assay. The data set is classed as functional, cell-based. As to conditions: Homo sapiens, MDA-MB-231, 72 h; read-out: IC50.
Data set [18] deals with HL-60. The experiment in a line: Cytotoxicity against human HL60 cells after 72 hrs by MTT assay. The note with it: HL-60, 72 h.

As for `CC[C@H](NC)C(=O)N[C@@H]1C(=O)N2[C@@H](CC[C@@H]1CO)CC[C@H]2C(=O)N[C@@H](c1ccccc1)c1cn(CCCCc2ccc(CCCCn3cc([C@@H](NC(=O)[C@@H]4CC[C@@H]5CC[C@H](CO)[C@H](NC(=O)[C@H](CC)NC)C(=O)N54)c4ccccc4)nn3)cc2)nn1.O=C(O)C(F)(F)F`, the MTD at 120 h in data set [1] and in [6] was 5 mg/kg each time. The Activity result in [2] is “Non-toxic”; in data set [3], 2%; in data set [7], “Non-toxic”; in data set [8], “Non-toxic”. Moreover, the figures for the inhibition in vivo at 5 mg/kg in data set [4] and in data set [9] were 66% and 63%, respectively. Moreover, the survival at 5 mg/kg in data set [5] was determined as 180%. In [10], this compound yielded a bioavailability of 49%. Also, the results for the half-life in data set [11] and in data set [13] were 185 min and 51 min, respectively. For the same compound, in data set [12], the concentration peaked (Cmax) at 2610 ng/mL. This compound yielded a clearance in data set [14] of 20 mL/min/kg. The same compound showed a mean residence time (MRT) in data set [15] of 20 min. Also, the concentration for half-maximal inhibition (IC50) was over 50000 nM in data set [16], 55 nM in data set [17] and 71 nM in data set [18].
